Experimental findings from PubChem BioAssay (NCI) are described below.

Values joined by “and” are separate entries in the source; they are usually repeats but may differ in a detail not shown here. Identical values can stand only once.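 Assay format: 96-well plates, 48-hour exposure. GI50 marks 50% less growth. Definition used: TGI = concentration required for complete inhibition of growth.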

One test relates to HL-60(TB) leukemia. Put plainly: growth of human tumour cells (NCI), 48 h.
Take `O=C(O)CN(CCN(CC(=O)O)CC(=O)O)CC(=O)O.[Mn+2]`: the GI50 was more than 100 µM and the TGI is more than 100 µM.

In turn, `CCO/C=C1\SC(=S)N(c2ccc(OCC)cc2)C1=O` yielded a TGI of more than 100 µM.

`Nc1nc(=S)c2ncn(C3OC(COP(=O)(O)O)C(O)C3O)c2[nH]1` (stereo unspecified): the GI50 is 2.37 µM and the TGI was more than 100 µM.

`O=C(Nc1ccc(OC(F)(F)Cl)cc1)c1cnc(N2CC[C@@H](O)C2)c(-c2ccn[nH]2)c1`: the GI50 is 22.3 µM and the TGI came out at 54 µM.

`NC(N)=NCCCC(NCc1c2ccccc2nc2ccccc12)C(=O)O` (stereo unspecified) showed a TGI of 44.1 µM.

Regarding `CC(=O)O[C@H]1CC2C(C3CC[C@H](C(C)CCC(=O)O)[C@]31C)[C@H](OC(C)=O)C[C@@H]1CC3(CC[C@]21C)OOC1(CCC(C)CC1)OO3` (stereo partly specified), the TGI was 11.2 µM and 4.41 µM.

As for `Cc1cnc(C(=O)NNc2nc3sc4c(c3c(=O)[nH]2)C(C)CCC4)cn1` (stereo unspecified), the GI50 is 2.04 µM and the TGI was 4.89 µM.

On to `O=C1c2ccccc2C(=O)c2c(NC3CCCCC3)ccc(Nc3ccc(S(=O)(=O)O)cc3)c21`, for which the TGI turned out to be 99.8 µM.

For the compound `CN(C)c1ccc(-c2cc(-c3ccc(Nc4nc(Nc5ccc(Cl)cc5)nc(Nc5ccc(Cl)cc5)n4)cc3)nc(N)c2C#N)cc1`, the GI50 is 10.6 µM and the TGI is more than 100 µM.

As for `COCCN(Cc1ccc(F)cc1)c1ccc(CO)c(Cl)c1`, the GI50 was 27.4 µM and the TGI was more than 75.4 µM.

As for `COc1ccc(C(O)c2cc3c(N)c(C(=O)Nc4cccc5ccccc45)sc3nc2C)cc1` (stereo unspecified), the GI50 was 0.254 µM and the TGI amounted to 0.652 µM.

For `O=C(COc1ccc(/C=C2\Oc3ccccc3C2=O)cc1)Nc1nc2ccccc2s1`, the GI50 is 1.68 µM and the TGI was determined as 3.51 µM.

Turning to `CC12OC(=O)C(C#N)C1(C)C1C(=O)CCCC12` (stereo unspecified), the TGI is more than 100 µM.

The subject of a further test is MALME-3M melanoma. Put plainly: growth of human tumour cells (NCI), 48 h.
For `O=C(O)CN(CCN(CC(=O)O)CC(=O)O)CC(=O)O.[Mn+2]`, the GI50 is more than 100 µM and the TGI is more than 100 µM.

Turning to `CCO/C=C1\SC(=S)N(c2ccc(OCC)cc2)C1=O`, the TGI is more than 100 µM.

With `Nc1nc(=S)c2ncn(C3OC(COP(=O)(O)O)C(O)C3O)c2[nH]1` (stereo unspecified), the GI50 is 1.81 µM and the TGI was determined as 75 µM.

Consider `O=C(Nc1ccc(OC(F)(F)Cl)cc1)c1cnc(N2CC[C@@H](O)C2)c(-c2ccn[nH]2)c1`, for which the GI50 was 12.5 µM and the TGI is 26 µM.

In the case of `NC(N)=NCCCC(NCc1c2ccccc2nc2ccccc12)C(=O)O` (stereo unspecified), the TGI is more than 100 µM.

Take `CC(=O)O[C@H]1CC2C(C3CC[C@H](C(C)CCC(=O)O)[C@]31C)[C@H](OC(C)=O)C[C@@H]1CC3(CC[C@]21C)OOC1(CCC(C)CC1)OO3` (stereo partly specified): the GI50 was 12.5 µM and 2.73 µM; the TGI is 28.3 µM and 8.04 µM.

`Cc1cnc(C(=O)NNc2nc3sc4c(c3c(=O)[nH]2)C(C)CCC4)cn1` (stereo unspecified): the GI50 is 1.72 µM and the TGI was found to be 12.2 µM.

In turn, `O=C1c2ccccc2C(=O)c2c(NC3CCCCC3)ccc(Nc3ccc(S(=O)(=O)O)cc3)c21` yielded a TGI of 58.7 µM.

Take `CN(C)c1ccc(-c2cc(-c3ccc(Nc4nc(Nc5ccc(Cl)cc5)nc(Nc5ccc(Cl)cc5)n4)cc3)nc(N)c2C#N)cc1`: the GI50 was 69.4 µM and the TGI was more than 100 µM.

Consider `COCCN(Cc1ccc(F)cc1)c1ccc(CO)c(Cl)c1`, for which the GI50 is more than 57.1 µM and the TGI is more than 100 µM.

Take `COc1ccc(C(O)c2cc3c(N)c(C(=O)Nc4cccc5ccccc45)sc3nc2C)cc1` (stereo unspecified): the GI50 is 0.544 µM and the TGI is more than 60.8 µM.

On to `O=C(COc1ccc(/C=C2\Oc3ccccc3C2=O)cc1)Nc1nc2ccccc2s1`, for which the GI50 was 3.94 µM and the TGI was more than 100 µM.

`CC12OC(=O)C(C#N)C1(C)C1C(=O)CCCC12` (stereo unspecified) showed a TGI of more than 100 µM.

Another test concerns A549 NSCLC. Put plainly: growth of human tumour cells (NCI), 48 h.
Turning to `O=C(O)CN(CCN(CC(=O)O)CC(=O)O)CC(=O)O.[Mn+2]`, the GI50 is more than 100 µM and the TGI was more than 100 µM.

Compound `CCO/C=C1\SC(=S)N(c2ccc(OCC)cc2)C1=O` showed a TGI of more than 100 µM.

As to `Nc1nc(=S)c2ncn(C3OC(COP(=O)(O)O)C(O)C3O)c2[nH]1` (stereo unspecified), the GI50 is 4.69 µM and the TGI was more than 100 µM.

As for `O=C(Nc1ccc(OC(F)(F)Cl)cc1)c1cnc(N2CC[C@@H](O)C2)c(-c2ccn[nH]2)c1`, the GI50 is 10.5 µM and the TGI was 33.6 µM.

Regarding `NC(N)=NCCCC(NCc1c2ccccc2nc2ccccc12)C(=O)O` (stereo unspecified), the TGI was more than 100 µM.

In the case of `CC(=O)O[C@H]1CC2C(C3CC[C@H](C(C)CCC(=O)O)[C@]31C)[C@H](OC(C)=O)C[C@@H]1CC3(CC[C@]21C)OOC1(CCC(C)CC1)OO3` (stereo partly specified), the TGI is 13.4 µM and 3.86 µM.

In the case of `Cc1cnc(C(=O)NNc2nc3sc4c(c3c(=O)[nH]2)C(C)CCC4)cn1` (stereo unspecified), the GI50 is 1.23 µM and the TGI came to 14 µM.

As for `O=C1c2ccccc2C(=O)c2c(NC3CCCCC3)ccc(Nc3ccc(S(=O)(=O)O)cc3)c21`, the TGI was more than 100 µM.

Turning to `CN(C)c1ccc(-c2cc(-c3ccc(Nc4nc(Nc5ccc(Cl)cc5)nc(Nc5ccc(Cl)cc5)n4)cc3)nc(N)c2C#N)cc1`, the GI50 was 13.9 µM and the TGI was more than 100 µM.

Take `COCCN(Cc1ccc(F)cc1)c1ccc(CO)c(Cl)c1`: the GI50 was 10.4 µM and the TGI is more than 79.5 µM.

In the case of `COc1ccc(C(O)c2cc3c(N)c(C(=O)Nc4cccc5ccccc45)sc3nc2C)cc1` (stereo unspecified), the GI50 is 0.381 µM and the TGI is more than 100 µM.

Take `O=C(COc1ccc(/C=C2\Oc3ccccc3C2=O)cc1)Nc1nc2ccccc2s1`: the GI50 was 4.96 µM and the TGI was more than 72.7 µM.

The compound `CC12OC(=O)C(C#N)C1(C)C1C(=O)CCCC12` (stereo unspecified) displayed a TGI of more than 100 µM.

The subject of another test is OVCAR-4 ovarian. Put plainly: growth of human tumour cells (NCI), 48 h.
As to `O=C(O)CN(CCN(CC(=O)O)CC(=O)O)CC(=O)O.[Mn+2]`, the GI50 is more than 100 µM and the TGI was more than 100 µM.

For `CCO/C=C1\SC(=S)N(c2ccc(OCC)cc2)C1=O`, the TGI was more than 100 µM.

For `Nc1nc(=S)c2ncn(C3OC(COP(=O)(O)O)C(O)C3O)c2[nH]1` (stereo unspecified), the GI50 was 2.19 µM and the TGI was more than 100 µM.

Turning to `O=C(Nc1ccc(OC(F)(F)Cl)cc1)c1cnc(N2CC[C@@H](O)C2)c(-c2ccn[nH]2)c1`, the GI50 is 7.07 µM and the TGI worked out at 43.5 µM.

In turn, `NC(N)=NCCCC(NCc1c2ccccc2nc2ccccc12)C(=O)O` (stereo unspecified) gave a TGI of more than 84.7 µM.

For `CC(=O)O[C@H]1CC2C(C3CC[C@H](C(C)CCC(=O)O)[C@]31C)[C@H](OC(C)=O)C[C@@H]1CC3(CC[C@]21C)OOC1(CCC(C)CC1)OO3` (stereo partly specified), the TGI was 12.2 µM and 5.77 µM.

Regarding `Cc1cnc(C(=O)NNc2nc3sc4c(c3c(=O)[nH]2)C(C)CCC4)cn1` (stereo unspecified), the GI50 is 0.449 µM and the TGI worked out at 12.6 µM.

Turning to `O=C1c2ccccc2C(=O)c2c(NC3CCCCC3)ccc(Nc3ccc(S(=O)(=O)O)cc3)c21`, the TGI is more than 100 µM.

For `CN(C)c1ccc(-c2cc(-c3ccc(Nc4nc(Nc5ccc(Cl)cc5)nc(Nc5ccc(Cl)cc5)n4)cc3)nc(N)c2C#N)cc1`, the GI50 is 9.86 µM and the TGI was more than 100 µM.

As for `COCCN(Cc1ccc(F)cc1)c1ccc(CO)c(Cl)c1`, the GI50 was 1.82 µM and the TGI came out at 23 µM.

Regarding `COc1ccc(C(O)c2cc3c(N)c(C(=O)Nc4cccc5ccccc45)sc3nc2C)cc1` (stereo unspecified), the GI50 was 1.58 µM and the TGI is more than 100 µM.

`O=C(COc1ccc(/C=C2\Oc3ccccc3C2=O)cc1)Nc1nc2ccccc2s1`: the GI50 was 21.2 µM and the TGI was more than 100 µM.

The compound `CC12OC(=O)C(C#N)C1(C)C1C(=O)CCCC12` (stereo unspecified) returned a TGI of more than 100 µM.

The next test concerns NCI-H23 lung. Put plainly: growth of human tumour cells (NCI), 48 h.
For `O=C(O)CN(CCN(CC(=O)O)CC(=O)O)CC(=O)O.[Mn+2]`, the GI50 was more than 100 µM and the TGI is more than 100 µM.

In turn, `CCO/C=C1\SC(=S)N(c2ccc(OCC)cc2)C1=O` yielded a TGI of more than 100 µM.

On to `Nc1nc(=S)c2ncn(C3OC(COP(=O)(O)O)C(O)C3O)c2[nH]1` (stereo unspecified), for which the GI50 was 1.93 µM and the TGI is more than 100 µM.

`O=C(Nc1ccc(OC(F)(F)Cl)cc1)c1cnc(N2CC[C@@H](O)C2)c(-c2ccn[nH]2)c1`: the GI50 was 13.6 µM and the TGI amounted to 33.5 µM.

`NC(N)=NCCCC(NCc1c2ccccc2nc2ccccc12)C(=O)O` (stereo unspecified) yielded a TGI of more than 100 µM.

In the case of `CC(=O)O[C@H]1CC2C(C3CC[C@H](C(C)CCC(=O)O)[C@]31C)[C@H](OC(C)=O)C[C@@H]1CC3(CC[C@]21C)OOC1(CCC(C)CC1)OO3` (stereo partly specified), the TGI is 15.8 µM and 5.43 µM.

Consider `Cc1cnc(C(=O)NNc2nc3sc4c(c3c(=O)[nH]2)C(C)CCC4)cn1` (stereo unspecified), for which the GI50 is 2.25 µM and the TGI turned out to be 43 µM.

`O=C1c2ccccc2C(=O)c2c(NC3CCCCC3)ccc(Nc3ccc(S(=O)(=O)O)cc3)c21` returned a TGI of more than 100 µM.

Take `CN(C)c1ccc(-c2cc(-c3ccc(Nc4nc(Nc5ccc(Cl)cc5)nc(Nc5ccc(Cl)cc5)n4)cc3)nc(N)c2C#N)cc1`: the GI50 was 30.5 µM and the TGI is more than 100 µM.

With `COCCN(Cc1ccc(F)cc1)c1ccc(CO)c(Cl)c1`, the GI50 is 17.2 µM and the TGI was more than 100 µM.

Turning to `COc1ccc(C(O)c2cc3c(N)c(C(=O)Nc4cccc5ccccc45)sc3nc2C)cc1` (stereo unspecified), the GI50 was 0.562 µM and the TGI is more than 100 µM.

As for `O=C(COc1ccc(/C=C2\Oc3ccccc3C2=O)cc1)Nc1nc2ccccc2s1`, the GI50 was 18.8 µM and the TGI is more than 100 µM.

`CC12OC(=O)C(C#N)C1(C)C1C(=O)CCCC12` (stereo unspecified) returned a TGI of more than 100 µM.
